Test results published in US20180160679A1, “PROCESS FOR TREATING PERENNIAL PLANT WOOD DISEASES” (priority 2015, published 2018).

Legend:
[1] = test system: Phaemoniella chlamydospora (81pep); experiment: Germination of the spores on malt-agar medium with fungicide; assay type: cell-based; details: at 0.05 mg/1
Protocol: (§1) Formulation 3 was used in this experiment and was compared with two formulations 5 and 6, devoid of one of the two active ingredients but of identical composition (the quantity of active ingredient omitted is replaced with water).
(§2) The fungi on which formulations 3, 5 and 6 were tested are Phaemoniella chlamydospora (81pep), Phaeoacremonium aleophilum (LR 23), Diplodia seriata (F98-01), Neofusicoccum parvum (NpSV) and Eutypa lata.
(§3) The fungi are transferred to a malt-agar medium (15 g of malt and 20 g of agar per litre of deionized water, sterilized at 120° C. for 20 minutes) in a Petri dish for multiplication.
(§4) The conidia of Phaemoniella chlamydospora and Phaeoacremonium aleophilum are obtained from cultures of these fungi. The conidia are obtained by rinsing the colony of fungi with a few millilitres of sterile deionized water.
(§5) The suspension of conidia in deionized water is then adjusted to 100-200 conidia per μl.
(§6) The culture medium is a malt-agar medium (15 g of malt and 20 g of agar per litre of deionized water, sterilized at 120° C. for 20 minutes).
(§7) The medium containing the fungicides is prepared by diluting the formulation under investigation in deionized water, which is added to the culture medium. The mixture is then homogenized and distributed in Petri dishes with a diameter of 90 mm.
(§8) The final concentrations of each active ingredient in the medium are as follows: 0.0005, 0.005, 0.05, 0.5, 5, 50 and 500 mg/L.
(§9) 100 μl of a previously homogenized suspension of spores is deposited and spread over the surface of the culture medium.
(§10) Two repetitions are carried out for each test.
(§11) The percentage germination of the spores is evaluated relative to a control placed under the same conditions.
(§12) Two Petri dishes are incubated at 25° C. for a time required for the spores of the control dish to have germinated between 90 and 100%.
(§13) For each Petri dish, 200 spores are counted and the percentage of spores germinated is calculated.
(§14) For each concentration of fungicide, the percentage efficacy of the active ingredient is determined by the following equation: […]

[2] = test system: Phaeoacremonium aleophilum (LR 23); experiment: as above; assay type: cell-based; details: at the concentrations tested (0.0005 to 500 mg/L)
Protocol: as §1, §2, §3, §4, §5, §6, §7, §8, §9, §10, §11, §12, §13, §14

[3] = test system: Diplodia seriata (F98-01); experiment: as above; assay type: cell-based; details: at the concentrations tested (0.0005 to 500 mg/L)
Protocol: as §1, §2, §3
The conidia of Diplodia seriata are obtained from pycnidia that have developed in less than three weeks of culture on the malt-agar medium. The pycnidia are taken from and cultured in sterile water in such a way that they release the conidia.
(§15) The culture medium is a malt-agar medium (15 g of malt and 20 g of agar per litre of deionized water, sterilized at 120° C. for 20 minutes). […]
(§16) The percentage germination of the spores is evaluated relative to a control placed under the same conditions. […]
as §13, §14

[4] = test system: Neofusicoccum parvum (NpSV); experiment: as above; assay type: cell-based
Protocol: as §1, §2, §3
The conidia of Neofusicoccum parvum are obtained from pycnidia that have developed on fragments of grapevines shoots.
as §6
The medium containing the fungicides is prepared by diluting the formulation under investigation in deionized water, which is added to the culture medium. […]
as §16, §13, §14

[5] = test system: Eutypa lata; experiment: as above; assay type: cell-based
Protocol: as §1, §2, §3
The ascospores of Eutypa lata are obtained from perithecia situated on vine plants that have died from Eutypiosis. The perithecia are decapitated superficially, isolated one by one and soaked in sterile water for approximately 2 hours. The concentration of ascospores is then adjusted to 100-200 conidia per μl.
as §15, §16, §13, §14

[6] = test system: Diplodia seriata (F98-01); experiment: Mycelial growth on malt-agar medium with fungicide; assay type: cell-based; details: for activity on mycelial growth: Example 6
Protocol: (§17) Formulation 3 was used in this experiment and was compared with two formulations 5 and 6, is devoid of one of the two active ingredients but of identical composition (the quantity of active ingredient omitted is replaced with water).
(§18) The fungi on which formulations 3, 5 and 6 were tested are Diplodia seriata (F98-01), Neofusicoccum parvum (NpSV), Eutypa lata (St309) and Formitiporia mediterranea (F2010-1).
as §6, §7, §8
(§19) Discs with a diameter of 6 mm, cut out with a punch, are placed in each dish in sterile conditions. Three repetitions are carried out for each test. The Petri dishes are incubated at 25° C. for a time necessary for the fungus to develop as far as 1 or 2 cm from the edges of a Petri dish.
(§20) The percentage mycelial growth is evaluated relative to a control placed under the same conditions for each concentration of fungicide, by the following equation: […]
(§21) The value of the concentration of the active ingredients required for inhibiting mycelial growth at 50% (IC50) or at 90% (IC90) is calculated from the regression straight line of the percentage efficacy as a function of the logarithm of the concentration of the fungicide.
(§22) The value of the concentration of the fungicide that is lethal for the fungus is obtained according to the following methodology; the mycelial implants that have not developed on the culture medium with fungicide are transferred to a malt-agar culture medium, without fungicide. The Petri dishes are then incubated at ambient temperature. Failure of the mycelial implant to take is noted.
(§23) The interactions between the fungicides in composition 3 are investigated by Wadley's method. IC50 and IC90 can be determined for each fungicide and for the fungicide combination from the curves plotted for each active ingredient used alone or for the combination.
(§24) IC90 and the theoretical IC90 for the combination is then calculated using the following equation:
(§25) The type and the level of the interaction F are then calculated by dividing the theoretical IC value by the experimental IC observed for the combination of fungicides (F=theoretical IC/experimental IC).
(§26) The interactions are defined thus: • Additivity: F=1, • Synergy: F>1, • Antagonism: F<1.
(§27) The efficacy of tetraconazole, cyproconazole alone or in combination with chlorothalonil or metiram zinc on mycelial growth was evaluated under the same conditions as in Example 4.
(§28) The efficacy of tebuconazole in combination with another […] antifungal, metiram zinc, was also evaluated.

[7] = test system: Eutypa lata (St309); experiment: Mycelial growth on malt-agar medium with fungicide; assay type: cell-based
Protocol: as §17, §18, §6, §7, §8, §19, §20, §21, §22, §23, §24, §25, §26, §27, §28

[8] = test system: Neofusicoccum parvum (NpSV); experiment: Mycelial growth on malt-agar medium with fungicide; assay type: cell-based
Protocol: as §17, §18, §6, §7, §8, §19, §20, §21, §22, §23, §24, §25, §26, §27, §28

[9] = test system: Formitiporia mediterranea (F2010-1); experiment: Mycelial growth on malt-agar medium with fungicide; assay type: cell-based, Fomitoporia mediterranea; details: for fungicide (lethal) activity: at the concentrations tested
Protocol: as §17, §18, §6, §7, §8, §19, §20, §21, §22, §23, §24, §25, §26, §27, §28

[10] = test system: Phaeocremonium aleophilum; experiment: Mycelial growth on malt-agar medium with fungicide (Example 6); assay type: cell-based
Protocol: as §6, §7, §19, §20, §21
as §22, with “noted. […]” for “noted.”
as §27, §28

[11] = test system: Phaeomoniella chlamydospora; experiment: as above; assay type: cell-based
Protocol: as §6, §7, §19, §20, §21
as §22, with “noted. […]” for “noted.”
as §27, §28

[12] = test system: Neonectria galligena (Cylindrocarpon heteronema); experiment: Growth inhibition by laser nephelometry in 96-well microplates; assay type: cell-based
Protocol: (§29) For multicellular organisms such as fungi, the nephelometry method is used on sporulating strains (Joubert et al., Laser nephelometry applied in an automated microplate system to study filamentous fungus growth, Biotechniques 48: 399-404, 2010).
(§30) The strains are multiplied on suitable agar media in an oven at 20° C., for 8 days before their use, so as to be in their exponential growth phase. The fungal suspension is prepared extemporaneously at a concentration of […] for Pc and […] for Ch.
(§31) 100 μl of the suspension is used for the tests.
(§32) The tests are carried out in 96-well microplates. Doses of 0 ppm, 0.1 ppm, 0.3 ppm, 1 ppm, 3 ppm, 10 ppm, 30 ppm, 100 ppm, 300 ppm, 1000 ppm and 3000 ppm (final concentration of the substance) will be tested per product.
(§33) Three technical repetitions are carried out per modality (target species/formulation).
(§34) Controls are added per target pathogenic agent: one positive growth control and the products alone at the highest doses.
(§35) Nephelometry measurements (RNU) are carried out for 60 h, every 30 minutes and the growth values are measured to study the growth inhibition effect relative to the fungal controls.

[13] = test system: Phytophthora cactorum; experiment: as above; assay type: cell-based; details: nephelometry for 60 h
Protocol: as §29, §30, §31, §32, §33, §34, §35

[14] = Example 5, at the concentrations tested

SMILES: N#Cc1c(Cl)c(Cl)c(Cl)c(C#N)c1Cl [chlorothalonil]
- inhibition of germination of the spores [1]: does not inhibit germination of the spores
- inhibition of germination of the spores [2]: does not inhibit germination of the spores
- inhibition of germination of the spores [3]: does not inhibit germination of the spores
- concentration from which germination of the spores is inhibited [4]: ≥ 5 mg/L
- concentration that inhibits germination of the spores [5]: 5 mg/1
- concentration from which mycelial development is strongly inhibited ([6]; Example 5): ≥ 500 mg/L
- fungicide (lethal) activity [6, 14]: does not display fungicide activity
- activity on mycelial growth [6]: low activity
- concentration from which mycelial development is strongly inhibited ([7]; Example 5): ≥ 50 mg/L
- fungicide (lethal) activity ([7]; Example 5, at the concentrations tested (0.0005 to 500 mg/L)): does not display fungicide activity
- activity on mycelial growth ([7]; Example 6): do not inhibit the mycelial growth of Eutypa lata completely
- activity on mycelial growth ([7]; Example 6, listed as Chlorothalonil): low activity
- concentration at which mycelial development is strongly inhibited ([8]; Example 5): 500 mg/L
- fungicide (lethal) activity [8, 14]: does not display fungicide activity
- activity on mycelial growth ([8]; Example 6): moderate activity
- concentration from which mycelial development is strongly inhibited ([9]; Example 5): ≥ 5 mg/L
- fungicide (lethal) activity [9]: does not display fungicide activity
- concentration at which mycelial growth is inhibited completely [10]: 500 mg/L
- concentration at which mycelial growth is inhibited completely [11]: 500 mg/L
- lethal dose [12]: ≥ 300 ppm
- IC50 ([12]; growth, nephelometry for 60 h): approximately 100 ppm
- IC90 ([12]; growth, nephelometry for 60 h): around 250 ppm
- 50% inhibitory concentration (IC50) [13]: below 10 ppm
- 90% inhibitory concentration (IC90) [13]: 1000 ppm

SMILES: CC(C1CC1)C(O)(Cn1cncn1)c1ccc(Cl)cc1 (stereo not shown) [cyproconazole]
- activity on mycelial growth [6]: low activity
- concentration from which mycelial growth is inhibited completely ([7]; Example 6): ≥ 1 mg/L
- lethal dose ([7]; Example 6): 10 mg/L
- concentration at which mycelial growth is inhibited completely ([8]; Example 6): 500 mg/L
- concentration at which mycelial growth is inhibited completely ([9]; Example 6): 500 mg/L
- fungicide (lethal) activity [9]: fungicidal
- concentration at which mycelial growth is inhibited completely [10]: 50 mg/L
- concentration at which the substance is fungicidal (lethal dose) [10]: 100 mg/L
- concentration at which mycelial growth is inhibited completely [11]: 50 mg/L
- concentration at which the substance is fungicidal [11]: 100 mg/L
